Experiments:
[1] = test system: reconstructed human epidermis Episkin J6; assay: Stratum corneum thickness by histological observation on slices of Episkin reconstructed epidermis; assay type: cell-based; details: tested at 10 μM, 1 μM and 0.5 μM; observed at and above the lowest concentration tested
Method: (§1) A model of reconstructed human epidermis Episkin J6 (reference 09-EPIS-015) was cultured by immersion in Episkin differentiation medium, 3.5 ml under insert in an oven at 37° C., 5% CO2, the medium being changed every 2 days.
(§2) The compound “M7” was tested at concentrations of 10 μM, 1 μM and 0.5 μM by incubation of the epidermal model with a differentiation culture medium supplied by EpiSkin®, comprising the compound at the test concentration or a buffer solution as control (DMSO at 0.1% final).
(§3) The effect of the compound “M7” on the differentiation and/or proliferation of epidermal cells is evaluated by measuring the thickness of the stratum corneum, and measurement of the expression and/or activation of transglutaminase I (TGI), caspase 14, SASPase, corneodesmosin, desmoglein 1 or protein Ki67.
The thickness of the stratum corneum was estimated by histological observation on slices.

[2] = test system: reconstructed human epidermis Episkin J6; assay: Western blotting of differentiation markers in Episkin reconstructed epidermis; assay type: cell-based; details: Episkin epidermis cultured in the presence of M7 (10 μM, 1 μM, 0.5 μM)
Method: as §1, §2, §3
The activation, expression and maturation of TGI, filaggrin, caspase 14, SASPase, corneodesmosin and desmoglein 1 were determined by western blotting.
For the western blotting, the soluble proteins, TGI, caspase 14, corneodesmosin and SASPase were extracted from two Episkin® nacelles with a manual potter in 1 ml of “native +” buffer (TBS, 1M NaCl, 0.1% Tween 20). The extract is centrifuged at 14 000 rpm, at 4° C. for 10 minutes. The supernatant obtained is filtered through a 0.45 μm Millipore filter (millex) and the proteins are then quantified by the BCA method (Pierce). The protein concentrations are equilibrated to 625 μg/ml final.
The extracts are deposited on a 10-20% Criterion gel (ref.: 345-0044 Bio-Rad) according to the supplier's protocol, and are then transferred onto a PVDF membrane via the semi-dry method.
The western blotting immunochemical detection is performed according to a standard protocol carried out with primary antibodies specific for the target and secondary antibodies coupled to HRP. Revelation is performed with the kits ECL; ECL plus; ECL advanced (Amersham) according to the necessary sensitivity and according to the supplier's protocol. The photon imaging apparatus used is the Fluor S Multilmager (Bio-Rad).
For TGI, primary antibody: Covalab pab 0061 at 1/100 produced in rabbits; secondary antibody: HRP-coupled anti-rabbit antibody at 1/4000: Bio-rad 170-6515
For caspase 14, primary antibody: Santa Cruz sc-5628 at 1/500 produced in rabbits; secondary antibody: HRP-coupled anti-rabbit antibody at 1/400: Bio-rad 170-6515
For corneodesmosin, primary antibody: Abnova 1041-M01 at 1/5000 produced in mice; secondary antibody: HRP-coupled anti-mouse antibody at 1/4000: Bio-rad 170-6516
For SASPase, primary antibody: Covalab 7H9a105 at 1/2000 produced in mice; secondary antibody: HRP-coupled anti-mouse antibody at 1/4000: Bio-rad 170-6516
For the western blotting of filaggrin and desmoglein 1, these proteins are extracted from the pellet obtained during the extraction of the “soluble” proteins. The pellets are ground with an electric potter in 200 μl of whole Laemmli buffer ([…] Tris; 2% SDS; 200 mM DTT; 10% glycerol) and then heated at 90° C. for 10 minutes and finally centrifuged for 10 minutes at 14 000 rpm at room temperature.
The supernatants obtained are assayed for proteins via the Bradford method (cytoskeleton). The total protein concentrations are equilibrated to 1 mg/ml final. A western blotting protocol identical to the previous one is applied.
For desmoglein 1, primary antibody: Progen 61002 at 1/100 produced in mice; secondary antibody: HRP-coupled anti-mouse antibody at 1/4000: Bio-rad 170-6516

[3] = test system: reconstructed human epidermis Episkin J6; assay: Ki67 immunofluorescence on frozen slices of Episkin reconstructed epidermis; assay type: cell-based; details: Episkin epidermis cultured in the presence of M7 (10 μM, 1 μM, 0.5 μM)
Method: as §1, §2, §3
The activation, expression and maturation of Ki67 were determined by immunofluorescence on frozen slices.
The immunofluorescence labeling on frozen slices is performed using a standard protocol, with a PBS buffer; 0.2% BSA for the steps of washing and incubation of the primary and secondary antibodies, and with a PBS buffer; 5% BSA for the step for blocking the nonspecific sites.
For the detection of Ki67, primary antibody: Novocastra mm1 at 1/20 produced in mice; secondary antibody: AlexaFLuor A488-coupled anti-mouse antibody at 1/1000 (Molecular Probes A11017). […]

SASPase-FLG2 interaction = biological target: T1, SASPase-FLG2 interaction (Homo sapiens, UniProt Q53RT3, D212A); assay: HTRF (FRET) screening of agents that modulate the SASPase-FLG2 interaction; assay type: binding; details: SASPase85-343D212A-GST 50 nM, FLG22-213-S-His-THX 200 nM, PBS pH 7.4; read-out: IC50, inhibition of the SASPase-FLG2 interaction
T1 construct: made in house; host or cells: E. coli BL21DE3
T1 sequence (Q53RT3 85-343 D212A): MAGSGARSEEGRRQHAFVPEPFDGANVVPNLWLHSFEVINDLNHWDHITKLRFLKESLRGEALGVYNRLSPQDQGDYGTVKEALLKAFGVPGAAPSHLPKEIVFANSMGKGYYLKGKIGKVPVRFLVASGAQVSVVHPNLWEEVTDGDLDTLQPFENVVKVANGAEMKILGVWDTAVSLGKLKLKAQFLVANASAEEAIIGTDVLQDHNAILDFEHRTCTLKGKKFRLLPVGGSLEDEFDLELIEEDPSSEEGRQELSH
Method: The process developed is based on the FLG2-SASPase interaction and uses the homogeneous time-resolved fluorescence (or HTRF) technique.
A recombinant SASPase protein (comprising the amino acid sequence 85-343 of Q53RT3) mutated at its active site (D212A of Q53RT3) and fused with the GST (glutathione S-transferase from Schistosoma japonicum) affinity marker, at its C-terminal end, was prepared in the vector pGEX-4-T3 (GenBank U13855) (SASPase85-343D212A-GST). The D212A mutation was introduced to inactivate the SASPase and to promote a stable interaction with FLG2. […]
Antibodies recognizing, respectively, the affinity markers GST or His-S.Tag, and bearing, respectively, an EuK fluorescence donor group (europium cryptate λex 337 nm/λem 620 nm) or an XL1665 fluorescence receiver group (λex 570-630 nm/λem 665 nm) are used to monitor the peptide-SASPase interaction.
The SASPase-FLG2 interaction was observed by fluorescence energy transfer (FRET) between the fluorescent markers Euk and XL1665. The Euk fluorescence donor was excited at λex 337 nm and the fluorescence emission of the XL1665 fluorescence acceptor was measured at λem 665 nm.
The Euk fluorescence emission at λem 620 nm, taking place independently of the interaction between SASPase and FLG2, was used to normalize the signal. Thus, for each point, a ratio λem 665/λem 620 is determined. […]

[4] = biological target: T2, recombinant SASPase (28 kDa) (Homo sapiens, UniProt Q53RT3); assay: Enzymatic activation of SASPase by FLG2 (hydrolysis of fluorescent substrate Dabcyl-QIDRIMEK-Edans); assay type: biochemical; details: for enzymatic activity of the SASPase: increasing concentration of FLG2 form (0.01 to 10 times SASPase 0.025 mg/ml), acetate/acetic acid buffer pH 5.5, 37° C.
T2 construct: made in house
T2 sequence (Q53RT3 85-343): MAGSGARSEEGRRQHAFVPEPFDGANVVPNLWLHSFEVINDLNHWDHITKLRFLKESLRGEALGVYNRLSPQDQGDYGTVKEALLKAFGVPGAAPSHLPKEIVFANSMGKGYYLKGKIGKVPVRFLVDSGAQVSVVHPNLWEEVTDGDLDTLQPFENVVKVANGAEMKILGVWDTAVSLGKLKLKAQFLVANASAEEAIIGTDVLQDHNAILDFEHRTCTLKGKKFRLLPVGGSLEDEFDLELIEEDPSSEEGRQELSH
Method: The enzymatic reaction is performed in an acetate/acetic acid buffer. The FIGURE illustrates the mean±sem of an experiment performed in duplicate.
A 28-kDa recombinant SASPase corresponding to the amino acid sequence 85 to 343 of the sequence Q53RT3 (Uniprot/Swissprot ref.) was prepared as described by Bernard et al. (J. Invest. Dermatol., 2005, 125: 278-287) (SASPase85-343).
The SASPase was dissolved in a PBS buffer and used at a final concentration of 0.025 mg/ml in the presence of a final concentration of a colorimetric substrate Dabcyl-QIDRIMEK-Edans of 0.01 mM (Production Jerini Peptide Ref. D17: JPT Peptide Technologies GmbH).
FLG2-Hs and FLG2-AbD are used at concentrations corresponding to 0.01, 0.02, 0.04, 0.08, 0.16, 0.31, 0.63, 1.25, 2.5, 5 or 10 times the final concentration of SASPase, i.e. 0.025 mg/ml.
SASPase and FLG2-Hs, or FLG2-AbD, are incubated at 37° C. in a 0.1 M acetate/acetic acid buffer at pH 5.5 containing 150 mM of NaCl, in the presence of Dabcyl-QIDRIMEK-Edans.
The hydrolysis of the colorimetric substrate by the activated SASPase leads to the separation of the Edans fluorochrome and of its Dabcyl deactivator (or quencher), and to an increase in the fluorescence of Edans.
Measurement of the fluorescent signal is performed at λex 340 nm/[…]. The fluorescence is read every 10 minutes for 1 hour 30 minutes at 37° C., with a Spectramax M5e (Molecular Devices).

## Cc1ccc(C(=O)Oc2cccc(C3C4=C(Nc5c3c(=O)n(C)c(=O)n5C)c3ccccc3C4=O)c2)cc1 (centres unmarked) [M7]
[1]
  thickness of the stratum corneum: thickening
[2]
  expression and activation of SASPase: increase
  expression and activation of TGI (transglutaminase I): increase
  expression and activation of caspase 14: increase
  expression and activation of corneodesmosin: increase
  expression and activation of desmoglein: increase
[3]
  activation and expression of the protein Ki67: decrease
SASPase-FLG2 interaction
  IC50: ~2000 nM

B1: FLG2-Hs: recombinant filaggrin-2, amino acids 2-213 of Q5D862, fused N-terminally to thioredoxin-His-S.Tag; active form (protein, UniProt Q5D862 2-213, looked up, fragment)
chain: TDLLRSVVTVIDVFYKYTKQDGECGTLSKGELKELLEKELHPVLKNPDDPDTVDVIMHMLDRDHDRRLDFTEFLLMIFKLTMACNKVLSKEYCKASGSKKHRRGHRHQEEESETEEDEEDTPGHKSGYRHSSWSEGEEHGYSSGHSRGTVKCRHGSNSRRLGRQGNLSSSGNQEGSQKRYHRSSCGHSWSGGKDRHGSSSVELRERINKSHI
modifications: N-terminal thioredoxin-His-S.Tag fusion
[4]; SASPase 0.025 mg/ml
  FLG2 concentration at and above which activation of SASPase proteolytic activity is obtained: equivalent to that of the SASPase
[4]
  enzymatic activity of the SASPase: significantly increased

B2: FLG2-AbD: recombinant filaggrin-2, amino acids 81-212 of Q5D862, fused N-terminally to thioredoxin-His-S.Tag; inactive form (protein, UniProt Q5D862 81-212, looked up, fragment)
chain: LTMACNKVLSKEYCKASGSKKHRRGHRHQEEESETEEDEEDTPGHKSGYRHSSWSEGEEHGYSSGHSRGTVKCRHGSNSRRLGRQGNLSSSGNQEGSQKRYHRSSCGHSWSGGKDRHGSSSVELRERINKSH
modifications: N-terminal thioredoxin-His-S.Tag fusion
[4]
  enzymatic activity of the SASPase: virtually unchanged

Reference: patent publication US9869681B2, “Process for treating an individual with an esthetic defect of skin by modulating SASPase FLG2 complex” (L'OREAL, priority 2010, dated 2018)
